The experiment deals with T1, Lsp from E. coli (Escherichia coli, UniProt P00804).
T1 construct: The full-length Lsp clone from E. coli (residues 1-164); His6 with enterokinase cleavage site (pET19b) (N); made in house; host or cells: E. coli Lemo21 (DE3), pET19b vector
In words: Lsp FRET activity assay, IC50 determination. The experiment is classed as biochemical. As to the method: […] […] 50 μM Lsp FRET substrate was subsequently added and the rate of substrate hydrolysis was measured by increase in fluorescence (excitation 355 nm, emission 495 nm) in 96-well plates on a PerkinElmer EnVision plate reader or Tecan Safire 2 microplate reader. Michaelis-Menten constants and […] were determined using GraphPad Prism software (GraphPad, Inc.).

Where [1] appears, read: FRET-based assay, [Lsp] = 100 nM, mean (± SD), read-out: IC50.
[2] abbreviates: Table 2, variation of R3, read-out: IC50.
Where [3] appears, read: Table 5, E = 100 nM, read-out: IC50.
The mark [4] stands for this setting: Table 5, [Lsp] = 20 nM, read-out: IC50.
Setting [5] is: Table 7, linker variation, E = 100 nM, read-out: IC50.
Setting [6] is: FRET-based assay, [Lsp] = 400 nM, mean (± SD), read-out: IC50.

From patent publication US20200181101A1, “BENZAMIDE INHIBITORS OF BACTERIAL LIPOPROTEIN SIGNAL PEPTIDASE” (The Scripps Research Institute, priority 2017, published 2020) come the findings set out here.

The structures appear in SMILES notation. Where two headings read alike, the source gives them in different places. Square brackets hold non-standard residues; d marks the D form. Peptide text beside a SMILES is read from it. * marks the point of attachment. Sta = CC(C)C[C@H](N)[C@@H](O)CC(=O)O; Isovaleryl = CC(C)CC(=O)*

T1 sequence (P00804 whole entry, the tested form may be a part): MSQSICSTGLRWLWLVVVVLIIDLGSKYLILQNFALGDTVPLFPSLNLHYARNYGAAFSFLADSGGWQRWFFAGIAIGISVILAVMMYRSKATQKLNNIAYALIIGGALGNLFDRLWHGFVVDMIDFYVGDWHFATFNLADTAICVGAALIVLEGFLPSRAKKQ

In the case of `CCCCCCOc1cc([N+](=O)[O-])c(C(=O)Nc2nnc(C(CC)CC)s2)cc1OC` [1h, 4-(hexyloxy)-5-methoxy-2-nitro-N-(5-(pentan-3-yl)-1,3,4-thiadiazol-2-y)benzamide], the concentration for half-maximal inhibition (IC50) – broadly, the concentration that inhibits the measured activity by half – under setting [1] was found to be 0.11 µM. In the case of `CCC(C)c1nnc(NC(=O)c2cc(OC)c(OC)cc2[N+](=O)[O-])s1` (centres unmarked) [Sk061-69-2], the IC50 under setting [2] amounted to 8.7 µM. Regarding `CC(C)CC(=O)N[C@H](C(=O)N[C@H](C(=O)N[C@@H](CC(C)C)[C@@H](O)CC(=O)N[C@@H](C)C(=O)N[C@@H](CC(C)C)[C@@H](O)CC(=O)O)C(C)C)C(C)C` [pepstatin, reference compound] (Isovaleryl-VV[Sta]A[Sta]-OH), the “inhibition of E. coli Lsp by known aspartic acid protease inhibitors” value (shortened to “inhibition of E. coli Lsp”) is “no known aspartic acid protease inhibitors”.

As for `CCC(CC)c1nnc(NC(=O)c2cc(Cl)c(OC3CCC(C)(C)CC3)cc2[N+](=O)[O-])s1` [Sk061-31-1], under setting [3], the IC50 came to 0.23 µM.

On to `CCC(CC)c1nnc(NC(=O)c2ccc(NC(C)=O)cc2[N+](=O)[O-])s1` [Sk054-112-2], for which the half-inhibitory concentration (IC50) (Table 4, read-out: IC50) amounted to 160 µM. As for `CCC(CC)c1nnc(NC(=O)c2cc(Cl)c(OC3CCCCC3)cc2[N+](=O)[O-])s1` [Sk056-29], under setting [4], the IC50 stood at 0.068 µM. For the molecule `COc1cc(C(=O)Nc2nnc(CCc3ccccc3)s2)c([N+](=O)[O-])cc1OC` [Sk052-88-2], the IC50 under setting [2] came out at 20 µM.

In the case of `COc1cc(C(=O)Nc2nnc(C3CCCCC3)s2)c([N+](=O)[O-])cc1OC` [Sk052-56], under setting [2], the IC50 was over 400 µM. `CCC(CC)c1nnc(NC(=O)c2ccc(OS(=O)(=O)F)cc2O)s1` [Sk056-50-4] gave an IC50 of 290 µM. For the molecule `CCC(CC)c1nnc(NC(=O)c2ccccc2CC(=O)OC)s1` [Sk056-82-1], the IC50 (Table 4, read-out: IC50) was found to be 21 µM. As for `CCC(CC)c1nnc(NC(=O)c2ccccc2C(=O)O)s1` [Sk056-24], the IC50 (Table 4, read-out: IC50) is 270 µM. `COCCCOc1cc(C[C@@H](C[C@H](N)[C@@H](O)C[C@H](C(=O)NCC(C)(C)C(N)=O)C(C)C)C(C)C)ccc1OC` [aliskiren, reference compound]: the “inhibition of E. coli Lsp” value is listed as “no known aspartic acid protease inhibitors”. As for `CCC(CC)c1nnc(NC(=O)c2cc(Cl)c(Oc3ccc(N)cc3)cc2[N+](=O)[O-])s1` [Sk061-32], under setting [3], the 50% inhibitory concentration (IC50) was about 4 µM. Take `CCC(CC)c1nnc(NC(=O)c2cc(Cl)c(Oc3ccccc3)cc2[N+](=O)[O-])s1` [Sk056-22-2]: the IC50 under setting [4] is 0.19 µM. As to `CC(C)[C@H](O)C(=O)N[C@@H](C)C(=O)N[C@@H]1C(=O)N(C)CCc2ccccc21` [semagacestat, reference compound], the “inhibition of E. coli Lsp” value is “no known aspartic acid protease inhibitors”.

In the case of `CCC(CC)c1nnc(NC(=O)c2cc(Cl)c(OC3CCCN(C(=O)OC(C)(C)C)C3)cc2[N+](=O)[O-])s1` (centres unmarked) [Sk061-80-5], under setting [5], the IC50 stood at 0.83 µM. Regarding `CCCCc1nnc(NC(=O)c2cc(OC)c(OC)cc2[N+](=O)[O-])s1` [1d], the concentration for half-maximal inhibition (IC50) under setting [6] stood at 29 µM and the IC50 under setting [2] was determined as 29 ± 0.6 µM. Turning to `CCOc1cc([N+](=O)[O-])c(C(=O)Nc2nnc(C(CC)CC)s2)cc1OC` [1f, 4-ethoxy-5-methoxy-2-nitro-N-(5-(pentan-3-yl)-1,3,4-thiadiazol-2-yl)benzamide], under setting [6], the half-inhibitory concentration (IC50) turned out to be 1.2 µM. For the molecule `CCC(CC)c1nnc(NC(=O)c2cc(Cl)c(OCCCNC(=O)OC(C)(C)C)cc2[N+](=O)[O-])s1` [Sk061-80-1], under setting [5], the half-maximal inhibitory concentration (IC50) is 1.7 µM. Turning to `CCC(CC)c1nnc(NC(=O)c2cc(Cl)c(OC3CCN(C(=O)OC(C)(C)C)CC3)cc2[N+](=O)[O-])s1` [Sk061-80-4], the IC50 under setting [5] came to 1.1 µM.

Consider `CCCCC(CC)c1nnc(NC(=O)c2cc(OC)c(OC)cc2[N+](=O)[O-])s1` (centres unmarked) [Sk061-69-4], for which the half-inhibitory concentration (IC50) under setting [2] came to 2.5 µM. For the molecule `CCC(CC)c1nnc(NC(=O)c2ccc(OC3CCCC3)cc2[N+](=O)[O-])s1` [Sk054-116-1], the IC50 under setting [4] was 0.4 µM. Molecule `CCC(CC)c1nnc(NC(=O)c2ccc(NCCS(=O)(=O)F)cc2[N+](=O)[O-])s1` [Sk056-45-3] came in with an IC50 of 19 µM. For `COC(=O)CCc1nnc(NC(=O)c2cc(OC)c(OC)cc2[N+](=O)[O-])s1` [Sk052-147-3], under setting [2], the IC50 is over 200 µM.

Turning to `CCCCCc1nnc(NC(=O)c2cc(OC)c(OC)cc2[N+](=O)[O-])s1` [Sk052-147-2], under setting [2], the IC50 amounted to 26 µM. Same read-out and setting: the value for `CCCc1nnc(NC(=O)c2cc(OC)c(OC)cc2[N+](=O)[O-])s1` [Sk054-141-2] was 26 µM. As to `CCC(CC)c1nnc(NC(=O)c2cc(Cl)c(OCCNC(=O)OC(C)(C)C)cc2[N+](=O)[O-])s1` [Sk061-68], the IC50 under setting [5] amounted to 0.21 µM.

Consider `CCC(CC)c1nnc(NC(=O)c2cc(OC)c(OC(C)C)cc2[N+](=O)[O-])s1` [1i, 4-isopropoxy-5-methoxy-2-nitro-N-(5-(pentan-3-yl)-1,3,4-thiadiazol-2-yl)benzamide], for which the “effect on cleaved substrate fluorescence” value is given as “no effect”. Further, under setting [1], the IC50 was 0.21 µM. Besides, for the setting “[S]=50 μM, [Lsp]=100 nM”, the Hill constant result is recorded as “approximately 1”. Take `O=C(Nc1nnc(CCCCCCl)s1)c1cc(Cl)c(OC2CCCC2)cc1[N+](=O)[O-]` [Sk056-15]: the IC50 (Table 6, read-out: IC50) came to 3.8 µM. Take `CCC(CC)c1nnc(NC(=O)c2cc(Cl)c(OCCCCCCN)cc2[N+](=O)[O-])s1` [Sk061-45]: the IC50 under setting [3] was over 4 µM. Take `CCOC(=O)Cc1nnc(NC(=O)c2cc(OC)c(OC)cc2[N+](=O)[O-])s1` [Sk052-27-2]: under setting [2], the 50% inhibitory concentration (IC50) was 78 µM. Turning to `COC(=O)CCSCCCCCc1nnc(NC(=O)c2cc(Cl)c(OC3CCCC3)cc2[N+](=O)[O-])s1` [Sk056-26], the IC50 (Table 6, read-out: IC50) was determined as 3.2 µM.

In the case of `CCC(CC)c1nnc(NC(=O)c2cc(OS(=O)(=O)F)ccc2[N+](=O)[O-])s1` [Sk054-144], half-maximal inhibition (IC50) was put at 65 µM.

On to `CCC(CC)c1nnc(NC(=O)c2ccccc2[N+](=O)[O-])s1` [Sk054-91-1], for which the IC50 (Table 4, read-out: IC50) was found to be 11 ± 3 µM. In the case of `CCCC(CCC)c1nnc(NC(=O)c2cc(OC)c(OC)cc2[N+](=O)[O-])s1` [Sk052-88-1], the IC50 under setting [2] amounted to 1.1 µM. With `CCC(CC)c1nnc(NC(=O)c2ccc(F)cc2[N+](=O)[O-])s1` [Sk054-91-3], the IC50 (Table 4, read-out: IC50) came to 7.2 µM. In the case of `COC(=O)N[C@H](C(=O)N[C@@H](Cc1ccccc1)[C@@H](O)CN(Cc1ccc(-c2ccccn2)cc1)NC(=O)[C@@H](NC(=O)OC)C(C)(C)C)C(C)(C)C` [atazaniavir, reference compound], the “inhibition of E. coli Lsp” value is reported as “no known aspartic acid protease inhibitors”. As to `CCCCOc1cc([N+](=O)[O-])c(C(=O)Nc2nnc(C(CC)CC)s2)cc1OC` [1g, 4-butoxy-5-methoxy-2-nitro-N-(5-(pentan-3-yl)-1,3,4-thiadiazol-2-yl)benzamide], under setting [1], the half-inhibitory concentration (IC50) stood at 0.54 µM. Regarding `CCC(CC)c1nnc(NC(=O)c2ccc(OC)cn2)s1` [Sk054-91-2], the IC50 (Table 4, read-out: IC50) is over 400 µM. `CCC(CC)c1nnc(NC(=O)c2cc(Cl)c(NC3CCCC3)cc2[N+](=O)[O-])s1` [Sk056-16-1]: the IC50 under setting [4] turned out to be 0.17 µM. With `CCC(CC)c1nnc(NC(=O)c2cc(Cl)c(OC3CCC(F)(F)CC3)cc2[N+](=O)[O-])s1` [Sk061-31-2], under setting [3], the IC50 was 0.58 µM. With `CCC(CC)c1nnc(NC(=O)c2c(Cl)cccc2[N+](=O)[O-])s1` [Sk056-82-2], under “Table 4, read-out: IC50”, the IC50 turned out to be 260 µM. Still for that read-out and setting: the value for `CCC(CC)c1nnc(NC(=O)c2cc(OS(=O)(=O)On3nnc4ncccc43)ccc2[N+](=O)[O-])s1` [Sk054-141-1] was 120 µM; that for `CCC(CC)c1nnc(NC(=O)c2ccc(OC)cc2N)s1` [Sk054-142] was 11 µM.
